Assay results as given in the NIST ThermoML archive (doi:10.1021/je030177j).

Conditions: Liquid, Capillary tube (Ostwald / Ubbelohde) method

O [water]
viscosity [mPa·s]
Conditions | 297.88 K | 319.09 K | 340.98 K | 370.39 K | 408.77 K | 447.38 K | 483.66 K | 538.57 K | 574.32 K
10000 kPa | 0.893 | 0.5912 | 0.4195 | 0.2947 | 0.206 | 0.1576 | 0.129 | 0.1005 | 0.0866
20000 kPa | 0.8933 | 0.589 | 0.4232 | 0.2976 | 0.2107 | 0.161 | 0.1314 | 0.1027 | 0.0903
30000 kPa | 0.8935 | 0.5978 | 0.4275 | 0.3012 | 0.2132 | 0.1637 | 0.134 | 0.1058 | 0.0932
